Measured values published in ChEMBL document CHEMBL1201862, “PubChem BioAssay data set” (2004).
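Cultured in 96-well plates, cells were exposed to test compound for 48 hours across five concentrations. Here, GI50 denotes the concentration required for 50% inhibition of growth.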 The source made the active and inactive calls. Cut-off read from the data, not from the text of the source: active = GI50 up to about 1.1 µM and inactive = higher.

Key:
Assay in all cases: NCI anticancer screen, dose series, 48 h
786-0 = system: 786-0
A498 = system: A498
A549 = system: A549
ACHN = system: ACHN
BT-549 = system: BT-549
CAKI-1 = system: CAKI-1
CCRF-CEM = system: CCRF-CEM
COLO 205 = system: COLO 205
DU-145 = system: DU-145
EKVX = system: EKVX
HCT-116 = system: HCT-116
HCT-15 = system: HCT-15
HL-60 = system: HL-60
HOP-62 = system: HOP-62
HT-29 = system: HT-29
Hs-578T = system: Hs-578T
IGROV-1 = system: IGROV-1
K562 = system: K562
KM12 = system: KM12
LOX IMVI = system: LOX IMVI
M14 = system: M14
MCF7 = system: MCF7
MDA-MB-231 = system: MDA-MB-231
MDA-MB-435 = system: MDA-MB-435
MDA-N = system: MDA-N
MOLT-4 = system: MOLT-4
Malme-3M = system: Malme-3M
NCI-H226 = system: NCI-H226
NCI-H23 = system: NCI-H23
NCI-H522 = system: NCI-H522
NCI/ADR-RES = system: NCI/ADR-RES
OVCAR-3 = system: OVCAR-3
OVCAR-4 = system: OVCAR-4
OVCAR-5 = system: OVCAR-5
OVCAR-8 = system: OVCAR-8
PC-3 = system: PC-3
RPMI-8226 = system: RPMI-8226
RXF 393 = system: RXF 393
SF-295 = system: SF-295
SK-MEL-28 = system: SK-MEL-28
SK-MEL-2 = system: SK-MEL-2
SK-MEL-5 = system: SK-MEL-5
SK-OV-3 = system: SK-OV-3
SN12C = system: SN12C
SNB-19 = system: SNB-19
SNB-75 = system: SNB-75
SR = system: SR
SW-620 = system: SW-620
T47D = system: T47D
TK-10 = system: TK-10
U-251 = system: U-251
UACC-257 = system: UACC-257
UACC-62 = system: UACC-62
UO-31 = system: UO-31
HCC 2998 = system: HCC 2998
NCI-H460 = system: NCI-H460
SF-268 = system: SF-268
SF-539 = system: SF-539
HOP-92 = system: HOP-92

## CCCCNN
786-0
  GI50: > 100 µM (inactive)
A498
  GI50: > 100 µM (inactive)
A549
  GI50: > 100 µM (inactive)
ACHN
  GI50: > 100 µM (inactive)
BT-549
  GI50: > 100 µM (inactive)
CAKI-1
  GI50: > 100 µM (inactive)
CCRF-CEM
  GI50: 43 µM (inactive)
COLO 205
  GI50: > 100 µM (inactive)
DU-145
  GI50: > 100 µM (inactive)
EKVX
  GI50: > 100 µM (inactive)
HCT-116
  GI50: > 100 µM (inactive)
HCT-15
  GI50: > 100 µM
HL-60
  GI50: > 100 µM (inactive)
HOP-62
  GI50: > 100 µM (inactive)
HT-29
  GI50: > 100 µM (inactive)
Hs-578T
  GI50: > 100 µM (inactive)
IGROV-1
  GI50: > 100 µM (inactive)
K562
  GI50: > 100 µM (inactive)
KM12
  GI50: > 100 µM (inactive)
LOX IMVI
  GI50: > 100 µM (inactive)
M14
  GI50: > 100 µM (inactive)
MCF7
  GI50: > 100 µM (inactive)
MDA-MB-231
  GI50: > 100 µM (inactive)
MDA-MB-435
  GI50: > 100 µM (inactive)
MDA-N
  GI50: > 100 µM (inactive)
MOLT-4
  GI50: > 100 µM (inactive)
Malme-3M
  GI50: > 100 µM (inactive)
NCI-H226
  GI50: > 100 µM (inactive)
NCI-H23
  GI50: > 100 µM (inactive)
NCI-H522
  GI50: 65.3 µM (inactive)
NCI/ADR-RES
  GI50: > 100 µM (inactive)
OVCAR-3
  GI50: > 100 µM (inactive)
OVCAR-4
  GI50: > 100 µM (inactive)
OVCAR-5
  GI50: > 100 µM (inactive)
OVCAR-8
  GI50: > 100 µM (inactive)
PC-3
  GI50: > 100 µM (inactive)
RPMI-8226
  GI50: > 100 µM (inactive)
RXF 393
  GI50: > 100 µM (inactive)
SF-295
  GI50: > 100 µM (inactive)
SK-MEL-28
  GI50: > 100 µM (inactive)
SK-MEL-2
  GI50: > 100 µM (inactive)
SK-MEL-5
  GI50: 95.7 µM (inactive)
SK-OV-3
  GI50: > 100 µM (inactive)
SN12C
  GI50: > 100 µM (inactive)
SNB-19
  GI50: > 100 µM (inactive)
SNB-75
  GI50: > 100 µM (inactive)
SR
  GI50: > 100 µM (inactive)
SW-620
  GI50: > 100 µM (inactive)
T47D
  GI50: > 100 µM (inactive)
TK-10
  GI50: > 100 µM (inactive)
U-251
  GI50: > 100 µM (inactive)
UACC-257
  GI50: > 100 µM (inactive)
UACC-62
  GI50: > 100 µM (inactive)
UO-31
  GI50: > 100 µM (inactive)

## COC(=O)c1cc(CC2Cc3cc4c(cc3C2=O)CCC4)cc2c1CCC2 (configuration not stated)
786-0
  GI50: 55.2 µM (inactive)
A498
  GI50: > 100 µM (inactive)
A549
  GI50: > 100 µM (inactive)
ACHN
  GI50: > 100 µM (inactive)
BT-549
  GI50: 60 µM (inactive)
CAKI-1
  GI50: 64.6 µM (inactive)
CCRF-CEM
  GI50: > 100 µM (inactive)
COLO 205
  GI50: 93.3 µM (inactive)
DU-145
  GI50: > 100 µM (inactive)
EKVX
  GI50: > 100 µM (inactive)
HCC 2998
  GI50: > 100 µM (inactive)
HCT-116
  GI50: 42.2 µM (inactive)
HCT-15
  GI50: > 100 µM
HL-60
  GI50: > 100 µM (inactive)
HOP-62
  GI50: 53.1 µM (inactive)
HT-29
  GI50: 51.8 µM (inactive)
Hs-578T
  GI50: 24.8 µM (inactive)
IGROV-1
  GI50: > 100 µM (inactive)
K562
  GI50: 39.1 µM (inactive)
KM12
  GI50: > 100 µM (inactive)
LOX IMVI
  GI50: > 100 µM (inactive)
M14
  GI50: 52.1 µM (inactive)
MCF7
  GI50: 45.8 µM (inactive)
MDA-MB-231
  GI50: > 100 µM (inactive)
MDA-MB-435
  GI50: > 100 µM (inactive)
MDA-N
  GI50: 70.6 µM (inactive)
MOLT-4
  GI50: > 100 µM (inactive)
Malme-3M
  GI50: 37.8 µM (inactive)
NCI-H226
  GI50: > 100 µM (inactive)
NCI-H23
  GI50: > 100 µM (inactive)
NCI-H460
  GI50: > 100 µM (inactive)
NCI-H522
  GI50: 54.3 µM (inactive)
NCI/ADR-RES
  GI50: 81.5 µM (inactive)
OVCAR-3
  GI50: > 100 µM (inactive)
OVCAR-4
  GI50: 33.2 µM (inactive)
OVCAR-5
  GI50: > 100 µM (inactive)
OVCAR-8
  GI50: > 100 µM (inactive)
PC-3
  GI50: 15.2 µM (inactive)
RPMI-8226
  GI50: > 100 µM (inactive)
SF-268
  GI50: > 100 µM (inactive)
SF-295
  GI50: 35.1 µM (inactive)
SF-539
  GI50: > 100 µM (inactive)
SK-MEL-28
  GI50: > 100 µM (inactive)
SK-MEL-2
  GI50: 63.7 µM (inactive)
SK-OV-3
  GI50: > 100 µM (inactive)
SN12C
  GI50: > 100 µM (inactive)
SNB-19
  GI50: > 100 µM (inactive)
SNB-75
  GI50: 31.3 µM (inactive)
SR
  GI50: > 100 µM (inactive)
SW-620
  GI50: > 100 µM (inactive)
T47D
  GI50: > 100 µM (inactive)
TK-10
  GI50: > 100 µM (inactive)
U-251
  GI50: > 100 µM (inactive)
UACC-257
  GI50: 77.6 µM (inactive)
UACC-62
  GI50: 95.1 µM (inactive)
UO-31
  GI50: > 100 µM (inactive)

## C[C@]12OC[C@H](c3ccccc3)N1C(=O)C1[C@H]2CC12SCCS2 (some centres not stated)
786-0
  GI50: > 100 µM (inactive)
A498
  GI50: > 100 µM (inactive)
A549
  GI50: > 100 µM (inactive)
ACHN
  GI50: > 100 µM (inactive)
BT-549
  GI50: > 100 µM (inactive)
CAKI-1
  GI50: > 100 µM (inactive)
CCRF-CEM
  GI50: > 100 µM (inactive)
COLO 205
  GI50: > 100 µM (inactive)
DU-145
  GI50: > 100 µM (inactive)
EKVX
  GI50: > 100 µM (inactive)
HCC 2998
  GI50: > 100 µM (inactive)
HCT-116
  GI50: > 100 µM (inactive)
HCT-15
  GI50: > 100 µM
HOP-62
  GI50: > 100 µM (inactive)
HOP-92
  GI50: > 100 µM (inactive)
HT-29
  GI50: > 100 µM (inactive)
Hs-578T
  GI50: > 100 µM (inactive)
IGROV-1
  GI50: > 100 µM (inactive)
K562
  GI50: > 100 µM (inactive)
KM12
  GI50: > 100 µM (inactive)
M14
  GI50: > 100 µM (inactive)
MCF7
  GI50: > 100 µM (inactive)
MDA-MB-231
  GI50: > 100 µM (inactive)
MDA-MB-435
  GI50: > 100 µM (inactive)
MDA-N
  GI50: > 100 µM (inactive)
MOLT-4
  GI50: > 100 µM (inactive)
Malme-3M
  GI50: > 100 µM (inactive)
NCI-H226
  GI50: > 100 µM (inactive)
NCI-H23
  GI50: > 100 µM (inactive)
NCI-H460
  GI50: > 100 µM (inactive)
NCI-H522
  GI50: > 100 µM (inactive)
NCI/ADR-RES
  GI50: > 100 µM (inactive)
OVCAR-3
  GI50: > 100 µM (inactive)
OVCAR-4
  GI50: > 100 µM (inactive)
OVCAR-5
  GI50: > 100 µM (inactive)
OVCAR-8
  GI50: > 100 µM (inactive)
PC-3
  GI50: > 100 µM (inactive)
RPMI-8226
  GI50: > 100 µM (inactive)
RXF 393
  GI50: > 100 µM (inactive)
SF-268
  GI50: > 100 µM (inactive)
SF-295
  GI50: > 100 µM (inactive)
SF-539
  GI50: > 100 µM (inactive)
SK-MEL-28
  GI50: > 100 µM (inactive)
SK-MEL-2
  GI50: > 100 µM (inactive)
SK-MEL-5
  GI50: > 100 µM (inactive)
SK-OV-3
  GI50: > 100 µM (inactive)
SN12C
  GI50: > 100 µM (inactive)
SNB-19
  GI50: > 100 µM (inactive)
SNB-75
  GI50: > 100 µM (inactive)
SR
  GI50: > 100 µM (inactive)
SW-620
  GI50: > 100 µM (inactive)
T47D
  GI50: > 100 µM (inactive)
TK-10
  GI50: > 100 µM (inactive)
U-251
  GI50: > 100 µM (inactive)
UACC-257
  GI50: > 100 µM (inactive)
UACC-62
  GI50: > 100 µM (inactive)
UO-31
  GI50: > 100 µM (inactive)
